Reference: US20260021106A1, “COMBINATION THERAPY FOR TREATING CANCERS” (GEISTLICH PHARMA AG, priority 2022, published 2026)
“Also recorded” adds a separate entry of the source. Blank lines part the entries; values can stand above or below the compound they belong to.

Columns and labels:
ovarian cancer cells = test: Cell viability assay / cytotoxic effect in ovarian cancer cell lines; type: cell-based, human
Method: (§1) Human Ovarian cancer cell lines: A2780, Coav3, HeyA8, HeyA8-MDR, Kuramochi, OVCAR3, OVCAR5, OVCAR8, and SKOV3 were obtained and used in studies.
(§2) In vitro assays: Cell viability assay, Western blotting, Colony formation assay, Reverse-phase protein array, and Ultra-high resolution mass spectrometry analysis were performed.
(§3) In vivo model of ovarian cancer: Pharmacodynamic study and therapeutic experiment using OVCAR8 ovarian cancer model were performed. FIGS. 8A-8B show the cytotoxic effect of GP-2250 on ovarian cancer cells.

mTOR [1] = test: In vivo pharmacodynamic experiment, OVCAR8 mouse model, mTOR; conditions: dose of 500 mg/kg
Method: as §3
(§4) FIGS. 11A-11B show pharmacodynamics studies of GP-2250.

AKT [2] = test: Western blotting of ovarian cancer cells, AKT; type: cell-based, human; conditions: treated 24 hours, Western blot
Method: (§5) GP-2250 inhibits mTOR, AKT and HIF-1α expression.
as §1, §2

AKT [3] = test: Reverse Phase Protein Array (RPPA), AKT; type: cell-based, human
Method: as §2

[4] = test system: human endothelial cell (hEC) spheroids; test: Spheroid assay, VEGF-induced endothelial sprouting; type: cell-based
Method: A spheriod assay was performed including growing human endothelial cell (hEC) spheroids and adding VEGF (1000 cells/spheroid; 200 sph/condition) for 24 hours using a hanging drog procedure with methyl-cellulose, then harvesting, adding GP-2250, and suspending in fibrinogen/thrombin matrix. The suspension was then transferred to a 24 well plate and incubated for 24 hours at 37° C. FIG. 1: VEGF-induced Endothelial Sprouting: Impact of GP-2250, Spheroid assay. […] Tip cells form sprouts, and stalk cells form capillary lumen as shown in the image (bottom).
FIG. 4 quantifies the effects of PBS control, Delta-like 4 (DLL4), and GP-2250 (at 2.5 μg/ml or at 10 μg/ml) on VEGF-induced endothelial cell sprouting.

AKT [5] = test: In vivo pharmacodynamic experiment, OVCAR8 mouse model, AKT; conditions: dose of 500 mg/kg
Method: as §3, §4

HIF1α = test: Western blotting of ovarian cancer cells, HIF1α; type: cell-based, human; conditions: treated 24 hours, Western blot
Method: as §5, §1, §2

[6] = test system: hypoxia-inducible factor-la; test: Reverse Phase Protein Array (RPPA), HIF-1α; type: cell-based, human
Method: as §2

mTOR [7] = test: Western blotting of ovarian cancer cells, mTOR; type: cell-based, human; conditions: treated 24 hours, Western blot
Method: as §5, §1, §2

OVCAR8-L = test: In vivo therapy experiment, orthotopic OVCAR8-L ovarian cancer mouse model; set-up: species or system mice; conditions: GP-2250 500 mg/kg 3 times per week, bevacizumab 6.25 mg/kg, take down day 49
Method: FIG. 5 schematically illustrates the experimental design for in vivo testing of the GP-2250 and bevacizumab on OVCAR8-L mice. The experiment includes testing: 1) IgG control (10 mice, 6.25 mg/kg, BW); 2) GP-2250 (10 mice, 500 mg/kg. 3 times per week); 3) Bevacizumab (10 mice, 6.25 mg/kg, BW) (“BEV”); and 4) the combination of GP-2250 and Bevacizumab.
Tumorigenicity of OVCAR8-L was determined using IVIS imaging. IVIS imaging following OCVAR8-L injection. 1×10^6 cells were injected through i.p., and then tumorigenicity was measured. All mice were injected with high-grade ovarian cancer cells (OVCAR8) labeled with luciferase gene by i.p. route. All mice survived until the end of the study. No mice were euthanized due to the effect of tumor. Five weeks after treatment, all mice were euthanized, body weight was measured, and no significant body weight change in each group.
as §3

VEGF = VEGF secretion in cancer cells; type: cell-based; conditions: compared to vehicle
Excerpt: as §5

cancer cells = test: Glycolysis and ATP synthesis in cancer cells; type: cell-based
Excerpt: (§6) (ns, not significant, **P<0.01; **P<0.001 (vs. control; Student t-test)).

hexokinase 2 = test: Hexokinase activity and expression (ultra-high resolution mass spectrometry, FIG. 10); type: cell-based, human
Method: as §2, §6

mTOR [8] = test: Reverse Phase Protein Array (RPPA), mTOR; type: cell-based, human
Method: as §2

[9] = 2.5 μg/ml or 10 μg/ml, compared to control

hexokinase 2 activity and expression (hexokinase 2; ultra-high resolution mass spectrometry (HRMS) analysis): significantly reduced
Compound: O=S1(=O)CCOCN1 [GP-2250]
apoptosis in ovarian cancer cells (ovarian cancer cells): increased apoptosis
proliferation in ovarian cancer cells (ovarian cancer cells): reduced proliferation
cancer cell viability (ovarian cancer cells; FIG. 10D, with siRNA targeting hexokinase 1 and hexokinase 2): reduces cancer cell viability
cytotoxic effect, vulnerability of HRD versus HRP ovarian cancer cells (ovarian cancer cells; HRD (Kuramochi, OVCAR4, OVCAR8) vs HRP (A2780, OVCAR5), 10 ovarian cancer cell lines): more vulnerable to GP-2250 than Homologous Recombination Proficiency (HRP) ovarian cancer cells
downregulating mTOR activation and expression (mTOR [1]): most effective
AKT expression (AKT [2]): inhibits
AKT activation and expression level (AKT [3]): inhibited
number of sprouts per spheroid [4, 9]: statistically significant reductions
total sprout length [4, 9]: statistically significant reductions
VEGF-induced endothelial cell sprouting ([4]; GP-2250 10 μg/ml, 24 hours): inhibits VEGF-induced endothelial cell sprouting
downregulating AKT activation and expression (AKT [5]): most effective
HIF1α expression in cancer cells (HIF1α): reduced HIF1α expression
hypoxia-inducible factor-la activation and expression level [6]: inhibited
mTOR expression (mTOR [7]): inhibits
nodules (tumor nodule number) (OVCAR8-L): 2.9±0.48
tumor weight (OVCAR8-L): 2.9 ± 0.48 g
VEGF secretion in cancer cells (VEGF): significantly reduced VEGF secretion
ATP synthesis in cancer cells (cancer cells): reduced
glycolysis in cancer cells (cancer cells): decreases glycolysis; also recorded: reduced glycolysis
hexokinase activity and protein expression levels (hexokinase 2; FIG. 10C): inhibits hexokinase activity and protein expression levels
mTOR activation and expression level (mTOR [8]): inhibited

Compound: bevacizumab: recombinant humanized monoclonal IgG1 antibody that specifically binds to and blocks the biological effects of VEGF [reference compound]
nodules (tumor nodule number) (OVCAR8-L): 3.8±0.71
tumor weight (OVCAR8-L): 0.43 ± 0.08 g
